The test system of the assay is CEM cells HIV-1 protection, formazan growth assay. As to the kind of experiment: NCI AIDS Antiviral Assay. The following applies: for pIC50: measured here: growth of uninfected CEM cells. In outline: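 Steps: treat uninfected and HIV-1-infected human CEM cells at five drug levels; quantify growth by soluble formazan; retest any compound reaching 50% protection; classify actives from the retest.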

Here are results for 28 molecules from PubChem BioAssay AID179 (DTP/NCI, 2004).

As a reminder, the pEC50 is −log10 of the EC50, conventionally taken in molar units. The term pIC50 denotes the negative decadic logarithm of the IC50, by convention in mol/L.

pEC50, pIC50: −log10 of the molar value. Active and inactive are the calls of the source.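 Rule for the calls: active = compounds giving half or more protection of infected cells from virus-caused growth loss, again on retest; inactive = the rest.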

Take `CCc1cc(-c2ccco2)c(C#N)c(=S)n1C1OC(COC(C)=O)C(OC(C)=O)C(OC(C)=O)C1OC(C)=O` (stereo not drawn): the pEC50 is less than 3.70 and the pIC50 was 4.10.
The like results for `O=C(N/N=C/c1cc(S(=O)(=O)O)c2cccnc2c1O)C(=O)N/N=C/c1cc(S(=O)(=O)O)c2cccnc2c1O` were, in that order, less than 3.70 and 4.38.
The like results for `COc1ccc(C2C3=C(CCCC3=O)N(c3ccccc3)C3=C2C(=O)CCC3)cc1` were, in that order, less than 3.70 and less than 3.70.
For `COCCOCCOCCOCCOCCOCCOCCOCCOCCOCCOCCOCCOCCOCCOCCOCCOCC(=O)N(CCn1ccc(N)nc1=O)CCn1cnc2nc(N)[nH]c(=O)c21`, in that order: less than 3.93 and less than 3.93.
Consider `Cc1cn(C2CC(NC(=O)N(C)O)C(CO[Si](C)(C)C(C)(C)C)O2)c(=O)[nH]c1=O` (stereo not drawn), for which the pEC50 was less than 3.70 and the pIC50 is 3.97.
Take `O=C(OCC12CC3CC(CC(C3)C1)C2)c1ccc(NCc2cc(O)ccc2O)cc1`: the pEC50 is less than 5.70 and the pIC50 is 5.75.
For `CCOC(=O)NC(Nc1ccc(C(=O)O)cc1)(C(F)(F)F)C(F)(F)F`, in that order: less than 3.70 and less than 3.70.
For `OC(c1cccs1)c1cc2ccccc2s1` (stereo not drawn), in that order: less than 3.70 and 3.93.
For `Clc1cc2c(c3ncccc13)OCN(Cc1ccccc1)C2`, in that order: less than 3.70 and 5.99.
Take `O=c1cc2cccccc-2o1`: the pEC50 was less than 3.22 and the pIC50 was 3.53.
With `O=C(Nc1ccc(Cl)c(Cl)c1)C1C(=O)N(c2ccc(Cl)c(Cl)c2)C(=O)/C1=N\O` (stereo not drawn), the result was inactive.
Consider `COC(=O)c1cnc2nc(N3CCOCC3)[nH]n2c1=O`, for which the pEC50 was less than 4.89 and the pIC50 was less than 4.89.
On to `CCOC1=C2C(C)(CCC3[C@@]4(C)C=CC(=O)C(C)(C)C4CC(O)[C@@]23C)C(c2ccoc2)C1=O` (stereo partly drawn), for which the pEC50 was less than 4.10 and the pIC50 is 4.75.
Regarding `CCc1cc(-c2cccc3ccccc23)c(C#N)c(=S)n1C1OC(CO)C(O)C(O)C1O` (stereo not drawn), the pEC50 was less than 3.70 and the pIC50 was 4.21.
The like results for `N=c1c2ccccc2nc2oc3ccc(Cl)cc3n12` were, in that order, less than 3.70 and 3.99.
On to `c1ccc(-c2sc(-c3ccccc3)c3c2[C@H](c2ccccc2)S[C@H]3c2ccccc2)cc1`, for which the result was inactive.
Take `O=C1C=C(Nc2ccccc2C(=O)CC(=O)C(=O)Nc2cccc([N+](=O)[O-])c2)c2ccccc2C1=O`: the pEC50 is less than 4.68 and the pIC50 was 4.81.
For `COc1cc2c(cc1OC)C1=NN(c3ccccc3)C(=O)C1CC2` (stereo not drawn), in that order: less than 5.07 and less than 5.07.
For `O=C(Nc1ccc2oc(=O)c(C(=O)O)cc2c1)Oc1ccccc1`, in that order: less than 3.55 and less than 3.55.
For `Cc1nc(C(N)=S)sc1C(=O)CC(=O)C(=O)Nc1ccccc1[N+](=O)[O-]`, the result was inactive.
For the molecule `Cc1ccc(S(=O)(=O)NCC2CCCCC2=O)cc1` (stereo not drawn), the pEC50 is less than 3.89 and the negative logarithm of the IC50 (pIC50) is 3.91.
For `C[n+]1c(-c2ccc(/C=N\NC(=O)c3cccc(C(=O)N/N=C/c4ccc(-c5cn6ccccc6[n+]5C)cc4)c3)cc2)cn2ccccc21`, in that order: 5.22 and 4.05.
The like results for `Nc1nnc(-c2ccccc2O)o1` were, in that order, less than 3.70 and 3.96.
For `O=S(=O)(O)c1cc(O)c(N=NC2S(=O)(=O)OCCOS2(=O)=O)c2ccccc12`, in that order: less than 3.70 and 4.11.
Turning to `CCc1cccc(C(C)C)c1N1C(=O)C(=O)C(c2nc3ccccc3s2)C(=O)C1=O`, the pEC50 is less than 4.76 and the pIC50 is less than 4.76.
On to `COc1ccc(N=CN(C)C)c(C)c1`, for which the pEC50 is less than 3.70 and the pIC50 was 5.40.
With `CC(C)(C)NC(=O)CCC(=O)O`, the pEC50 was less than 3.70 and the pIC50 is 3.96.
For `CC(=O)/C(=C/n1c(=S)sc2ccccc21)C(=O)Nc1ccccc1C`, in that order: less than 3.70 and 3.77.
